Measured values published in patent US20250302833A1, “PHARMACEUTICAL COMPOSITION FOR TREATING OR PREVENTING CYSTIC DISEASE” (CHUGAI SEIYAKU KABUSHIKI KAISHA, priority 2022, published 2025).

Columns and labels:
[1] = test system: pcy mice (naturally occurring PKD model); experiment: Suppression of increase in renal volume and decrease in renal function in pcy mice; type: in vivo, mouse; details: compared to tolvaptan
Protocol: The pcy mice, a naturally occurring PKD model, were used to evaluate the effects of tolvaptan and compound 4 in Test Example 1 on (a) renal volume, (b) blood urea nitrogen (UN) concentration, (c) body weight, and (d) urine volume in pcy mice.
The pcy mice (5 weeks of age at the start of this test) were grouped into 3 groups of 13 mice each. Compound 4 or tolvaptan was administered to each of the test compound administration groups. The administration period was 5 weeks. Compound 4 was administered subcutaneously once daily and tolvaptan was administered subcutaneously at a weekly pace. Compound 4 was administered at 33-40 mg/kg per dose and tolvaptan was administered at 25-30 mg/kg per dose. Compound 4 and tolvaptan were administered after dissolved in 50% DMSO/50% glycerol. A group of mice of the parental line was provided as a normal control group (Normal Control) (N=7). The 50% DMSO/50% glycerol was administered to the normal control group and the Vehicle group of pcy mice at 1 mL/kg.
The left renal volume (renal volume (mL)) of mice was calculated by the following formula using echography 5 weeks after the start of administration of the test compound, as shown in FIG. 3a.
After that, blood was collected from the abdominal vena cava, plasma was collected, and euthanasia treatment was performed. Blood urea nitrogen (UN) concentration (Plasma UN (mg/L)) was measured using L-type Waco UN (Fujifilm Wako Pure Chemical Corporation), as shown in FIG. 3b.
In addition, the body weight (Body weight (g)) of mice was measured every 7 days after the start of administration of the test compound, as shown in FIG. 3c. Furthermore, the volume of urine (Urine volume (mL/day)) was calculated from the specific gravity and measured weight of urine 5 weeks after the start of administration of the test compound, as shown in FIG. 3d.

human PiT1 = target: T1, human PiT1 (Homo sapiens, UniProt Q8WUM9); experiment: 33PO4 uptake inhibition in CHO cells expressing human PiT1; type: cell-based; details: CHO cells transiently expressing human PiT1, pH 6.5
T1 construct: expressed in transfected cells; host or cells: CHO cells, transient transfection with Fugene HD
T1 sequence (Q8WUM9 1-679): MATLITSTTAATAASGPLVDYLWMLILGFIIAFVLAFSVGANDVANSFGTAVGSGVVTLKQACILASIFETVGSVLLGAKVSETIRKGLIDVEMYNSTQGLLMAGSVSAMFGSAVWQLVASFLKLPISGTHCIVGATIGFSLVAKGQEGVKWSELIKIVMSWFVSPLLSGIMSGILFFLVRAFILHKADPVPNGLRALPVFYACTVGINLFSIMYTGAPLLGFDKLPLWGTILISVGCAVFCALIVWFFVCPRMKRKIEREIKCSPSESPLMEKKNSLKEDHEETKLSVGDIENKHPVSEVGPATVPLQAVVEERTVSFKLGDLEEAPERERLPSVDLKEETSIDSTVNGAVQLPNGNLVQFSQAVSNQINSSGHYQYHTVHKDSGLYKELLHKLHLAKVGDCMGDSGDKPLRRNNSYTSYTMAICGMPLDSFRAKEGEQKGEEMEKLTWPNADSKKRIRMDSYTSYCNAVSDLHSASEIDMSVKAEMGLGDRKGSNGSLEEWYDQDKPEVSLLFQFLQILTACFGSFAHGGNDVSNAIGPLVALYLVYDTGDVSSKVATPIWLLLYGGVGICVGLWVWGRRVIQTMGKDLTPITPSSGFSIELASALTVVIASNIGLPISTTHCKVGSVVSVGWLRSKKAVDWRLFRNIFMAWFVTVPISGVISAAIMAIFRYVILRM
Protocol: For transient expression, human NaPi-IIb expression plasmids, human PiT1 expression plasmids, human PiT2 expression plasmids, and Fugene HD Transfection (Promega Corporation) were added to CHO cells using a 96-well plate, and the plate was incubated in a C02 incubator for 16 hours. The medium was replaced with buffer A (145 mM choline chloride, 3 mM KCl, 1 mM CaCl2), 0.5 mM MgCl2, 5 mM glucose, 5 mM MES, (pH 6.5)), and then replaced with buffer B (145 mM NaCl, 3 mM KCl, 1 mM CaCl2, 0.5 mM MgCl2, 5 mM glucose, 5 mM MES (pH 6.5)) to which a test compound was added at the final concentration of 0.01, 0.03, 0.1, 0.3, 1, 3, 10, or 30 μM, buffer A to which DMSO was added, or buffer B to which DMSO was added. After a certain time, a 1/20 amount of buffer A containing ^33PO4 (PerkinElmer Japan G. K.) was added and reacted at room temperature. After washing with ice-cooled buffer A, a liquid scintillator (MicroScint™-20, item number 6013621, PerkinElmer Japan G.K.) was added, and the ^33PO4 uptake amount was measured with the top count (Top Count NXT, PerkinElmer Japan G.K.). The inhibition rate was determined by the following formula. Here, a certain time was set to 10 minutes. […]

CCCN([C@H]1CC[C@H](C(=O)[O-])CC1)S(=O)(=O)c1cccc(C(=O)Nc2sc3c(c2C(=O)Nc2ccc(CCCc4ccc(C(=O)[O-])cc4)cc2)CCCC3)c1.[Na+].[Na+] [Compound 4, Disodium; 4-[3-[4-[[2-[[3-[(4-carboxylatocyclohexyl)-propylsulfamoyl]benzoyl]ami-no]-4,5,6,7-tetrahydro-1-benzothiophene-3-carbonyl]amino]phenyl]pro-pyl]benzoic acid]
Body weight (weight loss) ([1]; 5 weeks administration): less weight loss
Urine volume ([1]; 5 weeks after start of administration): no increase in urine volume
Suppression effect on increase in renal volume ([1]; 33-40 mg/kg s.c. once daily, 5 weeks, left renal volume by echography): same degree of suppression effects
Suppression effect on decrease in renal function (blood urea nitrogen) ([1]; 33-40 mg/kg s.c. once daily, 5 weeks, plasma UN): same degree of suppression effects
IC50 (human PiT1): > 30 µM
